Measurements from ChEMBL document CHEMBL5506037, “Synthesis of Heterocyclic Ring-Fused Bisnoralcohol Derivatives as Novel Small-Molecule Antiosteoporosis Agents” (J Med Chem, 2024).
The source made the active and inactive calls. The calls are words filed in the database; no cut-off is given here.

Legend:
BMMC [1] = test: Anti-osteoclastogenesis activity in M-CSF/RANKL-induced C57BL/6J mouse BMMC cells assessed as inhibition of Fosl1 gene expression by RNA sequencing analysis; assay type: functional, cell-based
[2] = Apparent volume of distribution in ICR mouse at 1 mg/kg, iv measured upto 24 hrs by LC-MS/MS analysis; assay type: ADME, organism-based; settings: in vivo, read-out: Vz
BMMC [3] = test: Anti-osteoclastogenesis activity in M-CSF/RANKL-induced C57BL/6J mouse BMMC cells assessed as reduction in CTSK mRNA expression at 0.05 to 5 uM measured after 2 days by RT-qPCR analysis; assay type: functional, cell-based; settings: dose 0.05-5 µM, time 2.0 day
[4] = AUC (0 to t) in ICR mouse at 1 mg/kg, iv measured upto 24 hrs by LC-MS/MS analysis; assay type: ADME, organism-based; settings: in vivo
BMMC [5] = test: Anti-osteoclastogenesis activity in M-CSF/RANKL-induced C57BL/6J mouse BMMC cells assessed as reduction in TRAP mRNA expression at 0.05 to 5 uM measured after 2 days by RT-qPCR analysis; assay type: functional, cell-based; settings: dose 0.05-5 µM, time 2.0 day
BMMC [6] = test: Anti-osteoclastogenesis activity in M-CSF/RANKL-induced C57BL/6J mouse BMMC cells assessed as reduction in MMP9 mRNA expression at 0.05 to 5 uM measured after 2 days by RT-qPCR analysis; assay type: functional, cell-based; settings: dose 0.05-5 µM, time 2.0 day
BMMC [7] = test: Anti-osteoclastogenesis activity in M-CSF/RANKL-induced C57BL/6J mouse BMMC cells assessed as inhibition of Il1b gene expression by RNA sequencing analysis; assay type: functional, cell-based
Mus musculus [8] = test: Anti-osteoporosis activity in ovariectomized C57BL/6 mouse assessed as prevention of bone loss by measuring reduction in osteoclast formation at 0.6 mg/kg, ip administered every day for 6 weeks by TRAP staining based analysis; assay type: functional, organism-based
BMMC [9] = test: Potency index, ratio of bisnoralcohol IC50 to test compound IC50 for anti-osteoclastogenesis activity in M-CSF/RANKL-induced C57BL/6J mouse BMMC cells assessed as inhibition of osteoclast differentiation incubated for 7 days by TRAP staining based analysis; assay type: functional; settings: time 7 day
BMMC [10] = test: Anti-osteoclastogenesis activity in M-CSF/RANKL-induced C57BL/6J mouse BMMC cells assessed as reduction in size and amount of osteoclasts by measuring reduction in F-actin ring formation incubated for 7 days by rhodamine-labeled phalloidin staining based fluorescence microscopic analysis; assay type: functional, cell-based; settings: dose 0.05-0.5 µM, time 7.0 day
[11] = Terminal elimination half life in ICR mouse at 1 mg/kg, iv measured upto 24 hrs by LC-MS/MS analysis; assay type: ADME, organism-based; settings: in vivo, read-out: beta t1/2 (converted)
[12] = Oral bioavailability in ICR mouse at 10 mg/kg measured upto 24 hrs by LC-MS/MS analysis; assay type: ADME, organism-based; settings: in vivo
BMMC [13] = test: Anti-osteoclastogenesis activity in M-CSF/RANKL-induced C57BL/6J mouse BMMC cells assessed as inhibition of Traf6 gene expression by RNA sequencing analysis; assay type: functional, cell-based
BMMC [14] = test: Anti-osteoclastogenesis activity in M-CSF/RANKL-induced C57BL/6J mouse BMMC cells assessed as inhibition of Acp5 gene expression by RNA sequencing analysis; assay type: functional, cell-based
[15] = Cytotoxicity against M-CSF induced C57BL/6J mouse BMMC cells assessed as cell viability at 10 uM incubated for 48 hrs by CCK-8 assay relative to control; assay type: toxicity, cell-based; settings: read-out: Activity
[16] = Total plasma clearance in ICR mouse at 1 mg/kg, iv measured upto 24 hrs by LC-MS/MS analysis; assay type: ADME, organism-based
BMMC [17] = test: Anti-osteoclastogenesis activity in M-CSF/RANKL-induced C57BL/6J mouse BMMC cells assessed as inhibition of FCGR3 gene expression by RNA sequencing analysis; assay type: functional, cell-based
BMMC [18] = test: Anti-osteoclastogenesis activity in M-CSF/RANKL-induced C57BL/6J mouse BMMC cells assessed as inhibition of MMP9 gene expression by RNA sequencing analysis; assay type: functional, cell-based
BMMC [19] = test: Anti-osteoclastogenesis activity in M-CSF/RANKL-induced C57BL/6J mouse BMMC cells assessed as reduction in c-Fos mRNA expression at 0.05 to 5 uM measured after 2 days by RT-qPCR analysis; assay type: functional, cell-based; settings: dose 0.05-5 µM, time 2.0 day
BMMC [20] = test: Anti-osteoclastogenesis activity in M-CSF/RANKL-induced C57BL/6J mouse BMMC cells assessed as inhibition of osteoclast differentiation at 1 uM incubated for 7 days by TRAP staining based analysis relative to control; assay type: functional; settings: 168 h, time 7 day
[21] = Tmax in ICR mouse at 10 mg/kg, po measured upto 24 hrs by LC-MS/MS analysis; assay type: ADME, organism-based; settings: in vivo
BMMC [22] = test: Anti-osteoclastogenesis activity in M-CSF/RANKL-induced C57BL/6J mouse BMMC cells assessed as inhibition of FOS gene expression by RNA sequencing analysis; assay type: functional, cell-based
BMMC [23] = test: Anti-osteoclastogenesis activity in M-CSF/RANKL-induced C57BL/6J mouse BMMC cells assessed as reduction in osteoclast generation at 0.5 uM incubated for 7 days by TRAP staining based analysis relative to control; assay type: functional; set-up: scale not given: the % may be the effect or the level left; settings: time 7 day
BMMC [24] = test: Anti-osteoclastogenesis activity in M-CSF/RANKL-induced C57BL/6J mouse BMMC cells assessed as reduction in size and amount of osteoclasts by measuring reduction in TRAP-positive multinucleated cells incubated for 7 days by TRAP staining based analysis; assay type: functional, cell-based; settings: dose 0.05-0.5 µM, time 7.0 day
BMMC [25] = test: Anti-osteoclastogenesis activity in M-CSF/RANKL-induced C57BL/6J mouse BMMC cells assessed as inhibition of osteoclast differentiation at mid-stage at 0.1 uM measured after 3 to 5 days by TRAP staining based analysis relative to control; assay type: functional; settings: time 3-5 day
BMMC [26] = test: Anti-osteoclastogenesis activity in M-CSF/RANKL-induced C57BL/6J mouse BMMC cells assessed as reduction in c-Fos protein expression measured after 3 days by Western blot analysis; assay type: functional, cell-based; settings: dose 0.05-5 µM, time 3.0 day
[27] = Cmax in ICR mouse at 1 mg/kg, iv measured upto 24 hrs by LC-MS/MS analysis; assay type: ADME, organism-based; settings: in vivo
[28] = AUC (0 to infinity) in ICR mouse at 1 mg/kg, iv measured upto 24 hrs by LC-MS/MS analysis; assay type: ADME, organism-based; settings: in vivo
BMMC [29] = test: Anti-osteoclastogenesis activity in M-CSF/RANKL-induced C57BL/6J mouse BMMC cells assessed as inhibition of osteoclast differentiation incubated for 7 days by TRAP staining based analysis; assay type: functional, cell-based; settings: 168 h
BMMC [30] = test: Anti-osteoclastogenesis activity in M-CSF/RANKL-induced C57BL/6J mouse BMMC cells assessed as reduction in TRAF6 mRNA expression at 0.05 to 5 uM measured after 2 days by RT-qPCR analysis; assay type: functional, cell-based; settings: dose 0.05-5 µM, time 2.0 day
[31] = Tmax in ICR mouse at 1 mg/kg, iv measured upto 24 hrs by LC-MS/MS analysis; assay type: ADME, organism-based; settings: in vivo
Mus musculus [32] = test: Anti-osteoporosis activity in ovariectomized C57BL/6 mouse assessed as prevention of bone loss by measuring recovery of BV/TV in femur at 0.6 mg/kg, ip administered every day for 6 weeks by 3D-imaging analysis relative to control; assay type: functional
[33] = Toxicity in ovariectomized female C57BL/6 mouse assessed as reduction in body weight at 0.2 to 0.6 mg/kg, ip administered every day for 6 weeks; assay type: organism-based; settings: in vivo, 1008 h, dose 0.2-0.6 mg/kg

Q: Which Activity (BMMC [1]) does the source give for CCNC(=O)[C@@H](C)[C@H]1CC[C@H]2[C@@H]3CC=C4C(C)(C)c5nnsc5C[C@]4(C)[C@H]3CC[C@]12C here?
A: Active

Q: And the Vd [2]?
A: 4.85 L/kg

Q: What about the Activity (BMMC [3]) of the same compound?
A: Active

Q: And the AUC(0-t) at 24 h [4]?
A: 509 ng·h/mL

Q: And the Activity (BMMC [5])?
A: Active

Q: And the Activity (BMMC [6])?
A: Active

Q: And the Activity (BMMC [7])?
A: Active

Q: What about the Activity (Mus musculus [8]) of the same compound?
A: Active

Q: What about the “Ratio IC50” value (BMMC [9]) of the same compound?
A: 45

Q: What about the Activity (BMMC [10]) of the same compound?
A: Dose-Dependent Effect

Q: And the half-life [11]?
A: 106 min

Q: What about the bioavailability [12] of the same compound?
A: 13.1%

Q: And the Activity (BMMC [13])?
A: Active

Q: What about the Activity (BMMC [14]) of the same compound?
A: Active

Q: And the viability at 48 h, 10 µM [15]?
A: ≥ 100%

Q: And the clearance [16]?
A: 31.7 mL/min/kg

Q: And the Activity (BMMC [17])?
A: Active

Q: What about the Activity (BMMC [18]) of the same compound?
A: Active

Q: What about the Activity (BMMC [19]) of the same compound?
A: Active

Q: And the inhibition at 1 µM (BMMC [20])?
A: 100%

Q: What about the Tmax [21] of the same compound?
A: 40.2 min

Q: What about the Activity (BMMC [22]) of the same compound?
A: Active

Q: What about the Activity (BMMC [23]) of the same compound?
A: ~100%

Q: What about the Activity (BMMC [24]) of the same compound?
A: Dose-Dependent Effect

Q: And the inhibition at 0.1 µM (BMMC [25])?
A: 40.2%

Q: And the Activity (BMMC [26])?
A: Dose-Dependent Effect

Q: What about the Cmax [27] of the same compound?
A: 484 ng/mL

Q: What about the AUC(0-inf) [28] of the same compound?
A: 526 ng·h/mL

Q: And the IC50 (BMMC [29])?
A: 52 nM

Q: And the Activity (BMMC [30])?
A: Active

Q: What about the Tmax [31] of the same compound?
A: 4.8 min

Q: What about the Activity (Mus musculus [32]) of the same compound?
A: 57.15%

Q: What about the Activity [33] of the same compound?
A: Non-Toxic
